The text below walks through data of patent US7285618B1, “Polypeptides having neutrophil stimulating activity” (Japan Tobacco Inc., priority 2000, dated 2007).

For orientation: EC50 means the concentration needed to bring the measured effect to its halfway point. Read a high EC50 as a less potent agent.

For assay [1], the system named is HL60 cells. The class given is cell-based, human. As to the method: Cells were cultivated following the method as described in Example 4, except that the RPMI-1640 medium containing contained 15% of FCS, and that in order to differentiate the HL60 cells into neutrophil-like cells, a cell suspension was prepared such that the cell density in the flask would be 0.5×10^6 cells/ml at the time of addition of db-cAMP (final concentration, 0.5 mM). The β-HA secretion promoting activities of COSP-1 and fMLP were measured 24, 48 and 72 hours after the differentiation.

The subject of assay [2] is differentiated HL60 cells. The assay can be described thus: Migration promoting activity (Chemotaxis Cells), differentiated HL60 cells. In kind it is cell-based, human. The method, then: The migration promoting activity of each of the polypeptides of interest was measured using Chemotaxis Cells (Kurabo) as follows: The differentiated HL60 cells or undifferentiated HL60 cells were washed three times with ice-cooled HBHS and a cell suspension was prepared at a cell density of 4×10^6 cells/ml. The cell suspension was incubated at 37° C. for 10 minutes; thereafter, 500 μl of the cell suspension was transferred to Chemotaxis Cells (2×10^6 cells/Cell), which were put on a micro-well plate filled with pre-heated (37° C.) HBHS containing 1 ml of polypeptide and incubation was performed at 37° C. for 1 hour. Then, the Chemotaxis Cells were removed from the plate and the number of cells that had migrated in each well was counted.
Migration promoting activity was expressed by a chemotaxis index, or the number of cells that migrated upon stimulation was divided by the number of cells migrated without stimuli.
The activity of the human homologues of COSP-1 and fCyt b (1-15) for promoting β-HA secretion and migration promoting activities were measured following the methods described in Examples 4 and 5, respectively. The activity for β-HA secretion was expressed by the percentage for the maximum amount of secretion upon stimulation with 10 μM of fMLP, whereas the activity for migration was expressed by a chemotaxis index, i.e., the ratio of the number of stimulated migrating cells to that of unstimulated migrating cells.

The test system of assay [3] is differentiated HL60 cells. The class given is cell-based, human. Particulars: for secretion of β-HA upon stimulation after PTX treatment: cells treated with 50 ng/ml PTX for 16 hours; for Percentage of maximum secretion activity (%/control): control = β-HA released upon 10 μM fMLP; for β-HA secretion from differentiated HL60 cells (%/total): total = β-HA released with 0.05% Triton X-100. As to the method: a. Cultivation of HL60 Cells and Induction to the Differentiated Neutrophil-Like Cells For cultivation, heat-inactivated FCS (final concentration; 10%), streptomycin (final concentration; 100 mg/l), penicillin G (final concentration of 10^5 units/l) and RPMI-1640 culture solution containing 10 mM Hepes (pH 7.4) were used. Cells were cultivated at a cell density of 2×10^5-1.5×10^6 cells/ml in a plastic flask (80 cm^2, 260 ml, Nunc) at 37° C. under stationary conditions with a 5% of CO2 concentration and a 100% of humidity. […] c. […] Measuring β-HA Enzyme Activity The amount of β-HA secreted into the reaction supernatant was determined by measuring the absorbance at 415 nm of p-nitrophenol that was generated by an enzymatic reaction involving p-nitrophenyl N-acetyl-β-D-glucosaminide as a substrate. To be specific, 90 μl of the reaction supernatant was transferred to a 96-well Immuno plate (Nunc) and 60 μl of a substrate solution (10 mM p-nitrophenyl N-acetyl-β-D-glucosaminide/40 mM citrate, 70 mM Na2HPO4, pH 4.5) was added to initiate an enzymatic reaction. Following a 1-hr reaction at 37° C., 100 μl of a reaction quencher (400 mM glycine, pH 10.7) was added to stop the reaction and the absorbance at 415 nm was measured. As a control, cells were treated with Triton X-100 at a final concentration of 0.05% and the amount of β-HA in the supernatant was measured. As another control, the amount of β-HA secreted from cells upon stimulation with fMLP at a final concentration of 10 μM was measured.

For assay [4], the system named is human neutrophils. The assay can be described thus: β-HA secretion from human neutrophils. The class given is cell-based. To be noted: for β-HA secretion from neutrophil cells (%/total): human neutrophils; for secretion of β-HA from human neutrophils: stimulation with 10 μM. As to the method: b. Preparation of Human Leukocytes
Thirty milliliters of human peripheral blood (containing 500 units of heparin sodium) was plated on 5 ml of Lymphocepal I in each of 4 centrifugal tubes and spun down (400 g, 30 min) at room temperature. After spinning, the monocytes and lymphocytes forming a turbid layer at the interface between the plasma and Lymphocepal I were carefully taken to be removed. […] The Percoll layer containing neutrophils was carefully taken and washed with physiological saline. Then, it was replaced by a 0.2% NaCl solution and about 30 seconds later, an equal amount of 1.6% NaCl aqueous solution was added; this procedure was repeated twice, whereby the left erythrocytes were lysed and neutrophils were isolated.
The purities of these monocyte-lymphocyte mixed cells and neutrophils were assayed by analysis with a flow cytometer. Propidium iodide was added to the cell suspension at a final concentration of 100 ng/ml in order to stain dead cells. Using a flow cytometer, forward scatter intensity and side scatter intensity were measured on a linear scale only for the negative cells (living cells) in the cell suspension for the propidium iodide-staining. The results were processed by CellQuest software and represented as a dot plot of forward scatter intensity (X-axis) and side scatter intensity (Y-axis). The purify of monocycle-lymphocyte mixed cells were 84% and that of the neutrophils were 83%. […]
c. Stimulation of the Cell […]
d. Measuring β-HA Enzyme Activity
The amount of β-HA secreted into the reaction supernatant was determined by measuring the absorbance at 415 nm of p-nitrophenol that was generated by an enzymatic reaction involving p-nitrophenyl N-acetyl-β-D-glucosaminide as a substrate. To be specific, 90 μl of the reaction supernatant was transferred to a 96-well Immuno plate (Nunc) and 60 μl of a substrate solution (10 mM p-nitrophenyl N-acetyl-β-D-glucosaminide/40 mM citrate, 70 mM Na2HPO4, pH 4.5) was added to initiate an enzymatic reaction. Following a 1-hr reaction at 37° C., 100 μl of a reaction quencher (400 mM glycine, pH 10.7) was added to stop the reaction and the absorbance at 415 nm was measured. As a control, cells were treated with Triton X-100 at a final concentration of 0.05% and the amount of β-HA in the supernatant was measured. As another control, the amount of β-HA secreted from cells upon stimulation with fMLP at a final concentration of 10 μM was measured.

Read-outs that look alike come from different tables or passages of the source. Where no end group is shown, it is not given here.

On to `CSCC[C@H](NC=O)C(=O)N[C@@H](CC(C)C)C(=O)N[C@@H](Cc1ccccc1)C(=O)O` [fMLP, formyl methionyl-leucyl-phenylalanine, reference compound], for which a half-maximal effect in assay [1] (24 h) (EC50) was put at 110 nM. The compound further returned a concentration for a half-maximal effect (EC50) in assay [1] (48 h) of 22 nM. The compound further displayed an EC50 in assay [1] (72 h) of 9.3 nM. In addition, in assay [1] (Differentiation 24 hr), the “Max. (%/total), maximum secretion on average” value (from here on “Max. (%/total)”) came to 17.4 %/total. Also, the “Max. (%/total)” value in assay [1] (Differentiation 48 hr) turned out to be 40.6 %/total. Besides, the “Max. (%/total)” value in assay [1] (Differentiation 72 hr) worked out at 48.4 %/total. Further, in assay [2] (Example 12), the “activity for migration at the concentrations where β-HA secretion was observed” value is listed as “also observed” and the “concentrations of migration activity relative to the concentration for β-HA secretion” value was “observed at concentrations lower”. For the same compound, in assay [3], the “secretion of β-HA upon stimulation after PTX treatment” value is “almost completely inhibited”, the “Percentage of maximum secretion activity (%/control)” value was 100 %/control and the “β-HA secretion from differentiated HL60 cells (%/total)” value amounted to 67.4 %/total. Besides, in assay [4], the “β-HA secretion from neutrophil cells (%/total)” value is 68.3 %/total and the “secretion of β-HA from human neutrophils” value was 68.3%.
In the case of LSFLIPAGWVLSHLDHYKRSSAA-OH [COSP-1], the EC50 was determined as 1200 nM in assay [1] (24 h), 450 nM in assay [1] (48 h) and 270 nM in assay [1] (72 h). In addition, the “Max. (%/total)” value stood at 15.6 %/total in assay [1] (Differentiation 24 hr), 35.7 %/total in assay [1] (Differentiation 48 hr) and 45.3 %/total in assay [1] (Differentiation 72 hr). Further, in assay [2], the “migration promoting (attracting) activity” value was “attracting activity”. Besides, the “promoted secretion of β-HA under Boc-MLF treatment” value in assay [3] (Boc-MLF treatment, data not shown) was “significantly suppressed”. In assay [3], the “secretion of β-HA upon stimulation after PTX treatment” value is on record as “almost completely inhibited”. The “Percentage of maximum secretion activity (%/control)” value in assay [3] stood at 93.6 ± 2.8 %/control. In assay [3], the “β-HA secretion from differentiated HL60 cells (%/total)” value is 63.1 %/total. Further, the “β-HA secretion from neutrophil cells (%/total)” value in assay [4] is reported as 40.5 %/total. In addition, the “secretion of β-HA from human neutrophils” value in assay [4] amounted to 40.5%.
